These are literature values, as cited in article PMC3157551 (Bioconjugate chemistry, 2011).

In the case of “avidin: avidin (Pierce-Thermo), 128 amino acid biotin-binding protein”, the “dissociation half-time of biotin from avidin” value was 89 days.
